# ChEMBL document CHEMBL5696443 (Clin Cancer Res, 2016)
# Activity calls are given as the source filed them. The rule behind the calls is not given here.
# Key:
# [1] = target: Tyrosine-protein kinase Fer (Homo sapiens, UniProt P16591); assay: Inhibition of human FER using poly (Glu, Tyr)4:1 as substrate in presence of [gamma33P]-ATP by HotSpot assay
# [2] = target: Dual specificity protein kinase CLK1 (Homo sapiens, UniProt P49759); assay: Inhibition of human CLK1 using MBP as substrate in presence of [gamma33P]-ATP by HotSpot assay
# [3] = target: Receptor tyrosine-protein kinase erbB-4 (Homo sapiens, UniProt Q15303); assay: Inhibition of human ERBB4 using poly (Glu, Tyr)4:1 as substrate in presence of [gamma33P]-ATP by HotSpot assay
# [4] = target: Testis-specific serine/threonine-protein kinase 2 (Homo sapiens, UniProt Q96PF2); assay: Inhibition of human TSSK2 using KKKVSRSGLYRSPSMPENLNRPR as substrate in presence of [gamma33P]-ATP by HotSpot assay
# [5] = target: Tyrosine-protein kinase HCK (Homo sapiens, UniProt P08631); assay: Inhibition of human HCK using KVEKIGEGTYGVVYK as substrate in presence of [gamma33P]-ATP by HotSpot assay
# [6] = target: Tyrosine-protein kinase Lyn (Homo sapiens, UniProt P07948); assay: Inhibition of human LYN using poly (Glu, Tyr)4:1 as substrate in presence of [gamma33P]-ATP by HotSpot assay
# [7] = target: Tyrosine-protein kinase ABL1 (Homo sapiens, UniProt P00519, T315I); assay: Inhibition of human ABL1 T315I mutant using EAIYAAPFAKKK as substrate in presence of [gamma33P]-ATP by HotSpot assay
# [8] = target: Macrophage colony-stimulating factor 1 receptor (Homo sapiens, UniProt P07333); assay: Inhibition of human FMS using poly (Glu, Tyr)4:1 as substrate in presence of [gamma33P]-ATP by HotSpot assay
# [9] = target: Vascular endothelial growth factor receptor 2 (Homo sapiens, UniProt P35968); assay: Inhibition of human VEGFR2 using poly (Glu, Tyr)4:1 as substrate in presence of [gamma33P]-ATP by HotSpot assay
# [10] = target: RAC-alpha serine/threonine-protein kinase (Homo sapiens) (UniProt P31749); assay: Inhibition of human AKT1 at 1 uM using KGSGSGRPRTSSFAEG as substrate in presence of [gamma33P]-ATP by HotSpot assay relative to control
# [11] = target: Discoidin domain-containing receptor 2 (Homo sapiens) (UniProt Q16832); assay: Inhibition of human DDR2 at 1 uM using KKSRGDYMTMQIG as substrate in presence of [gamma33P]-ATP by HotSpot assay relative to control
# [12] = target: Myotonin-protein kinase (Homo sapiens) (UniProt Q09013); assay: Inhibition of human DMPK at 1 uM using KKRNRRLSVA as substrate in presence of [gamma33P]-ATP by HotSpot assay relative to control
# [13] = target: Glycogen synthase kinase-3 alpha (Homo sapiens) (UniProt P49840); assay: Inhibition of human GSK3alpha at 1 uM using YRRAAVPPSPSLSRHSSPHQ(pS)EDEEE as substrate in presence of [gamma33P]-ATP by HotSpot assay relative to control
# [14] = target: Misshapen-like kinase 1 (Homo sapiens) (UniProt Q8N4C8); assay: Inhibition of human MINK1 at 1 uM using MBP as substrate in presence of [gamma33P]-ATP by HotSpot assay relative to control
# [15] = target: Serine/threonine-protein kinase mTOR (Homo sapiens) (UniProt P42345); assay: Inhibition of human MTOR at 1 uM using 4EBP1 as substrate in presence of [gamma33P]-ATP by HotSpot assay relative to control
# [16] = target: Serine/threonine-protein kinase Nek7 (Homo sapiens) (UniProt Q8TDX7); assay: Inhibition of human NEK7 at 1 uM using casein as substrate in presence of [gamma33P]-ATP by HotSpot assay relative to control
# [17] = target: High affinity nerve growth factor receptor (Homo sapiens) (UniProt P04629); assay: Inhibition of human NTRK1 at 1 uM using poly (Glu, Tyr)4:1 as substrate in presence of [gamma33P]-ATP by HotSpot assay relative to control
# [18] = target: Mitogen-activated protein kinase 14 (Homo sapiens) (UniProt Q16539); assay: Inhibition of human P38alpha T106M mutant at 1 uM using poly (Glu, Tyr)4:1 as substrate in presence of [gamma33P]-ATP by HotSpot assay relative to control
# [19] = target: Serine/threonine-protein kinase PAK 2 (Homo sapiens) (UniProt Q13177); assay: Inhibition of human PAK2 at 1 uM using RRRLSFAEPG as substrate in presence of [gamma33P]-ATP by HotSpot assay relative to control
# [20] = target: Serine/threonine-protein kinase Sgk3 (Homo sapiens) (UniProt Q96BR1); assay: Inhibition of human SGK3 at 1 uM using GRPRTSSFAEG as substrate in presence of [gamma33P]-ATP by HotSpot assay relative to control
# [21] = target: TGF-beta receptor type-2 (Homo sapiens) (UniProt P37173); assay: Inhibition of human TGFBR2 at 1 uM using MBP as substrate in presence of [gamma33P]-ATP by HotSpot assay relative to control
# [22] = Average plasma concentration in CB-17/SCID mouse at 50 mg/kg administered once a day for 4 days by LC-MS/MS analysis; format: ADME, organism-based; conditions: in vivo, 96 h, time 4 day
# [23] = Average plasma concentration in human at 90 mg administered once a day; format: ADME; conditions: in vivo
# [24] = Toxicity in SCID Beige mouse xenografted with ALK positive human KARPAS-299 cells assessed as effect on body weight at 10 to 50 mg/kg; format: organism-based; conditions: in vivo, dose 10-50 mg/kg
# NCI-H2228 = assay: Antitumor activity against ALK positive human NCI-H2228 cells xenografted in CB-17/SCID orthotopic brain tumor mouse model assessed as reduction in tumor burden in brain at 50 mg/kg, po administered daily and measured after 64 days by H&E staining based analysis; format: functional, organism-based; conditions: time 64.0 day
# [25] = tested on: Epidermal growth factor receptor (Homo sapiens), P00533 [UNDEFINED MUTATION]; conditions: BaF3, time 72.0 hrs
# [26] = tested on: Epidermal growth factor receptor (Homo sapiens), P00533 [L858R]; conditions: BaF3, time 72.0 hrs
# KARPAS-299 = conditions: time 72 hrs
# [27] = tested on: EML4-ALK (Homo sapiens), Q9UM73+Q9HC35 [F1174I]; conditions: BaF3, dose 200.0 nmol/L, time 3-5 weeks
# [28] = tested on: EML4-ALK (Homo sapiens), Q9UM73+Q9HC35 [S1206Y]; conditions: BaF3, dose 500.0 nmol/L, time 3-5 weeks
# Sequence of Vascular endothelial growth factor receptor 2 (P35968 whole entry): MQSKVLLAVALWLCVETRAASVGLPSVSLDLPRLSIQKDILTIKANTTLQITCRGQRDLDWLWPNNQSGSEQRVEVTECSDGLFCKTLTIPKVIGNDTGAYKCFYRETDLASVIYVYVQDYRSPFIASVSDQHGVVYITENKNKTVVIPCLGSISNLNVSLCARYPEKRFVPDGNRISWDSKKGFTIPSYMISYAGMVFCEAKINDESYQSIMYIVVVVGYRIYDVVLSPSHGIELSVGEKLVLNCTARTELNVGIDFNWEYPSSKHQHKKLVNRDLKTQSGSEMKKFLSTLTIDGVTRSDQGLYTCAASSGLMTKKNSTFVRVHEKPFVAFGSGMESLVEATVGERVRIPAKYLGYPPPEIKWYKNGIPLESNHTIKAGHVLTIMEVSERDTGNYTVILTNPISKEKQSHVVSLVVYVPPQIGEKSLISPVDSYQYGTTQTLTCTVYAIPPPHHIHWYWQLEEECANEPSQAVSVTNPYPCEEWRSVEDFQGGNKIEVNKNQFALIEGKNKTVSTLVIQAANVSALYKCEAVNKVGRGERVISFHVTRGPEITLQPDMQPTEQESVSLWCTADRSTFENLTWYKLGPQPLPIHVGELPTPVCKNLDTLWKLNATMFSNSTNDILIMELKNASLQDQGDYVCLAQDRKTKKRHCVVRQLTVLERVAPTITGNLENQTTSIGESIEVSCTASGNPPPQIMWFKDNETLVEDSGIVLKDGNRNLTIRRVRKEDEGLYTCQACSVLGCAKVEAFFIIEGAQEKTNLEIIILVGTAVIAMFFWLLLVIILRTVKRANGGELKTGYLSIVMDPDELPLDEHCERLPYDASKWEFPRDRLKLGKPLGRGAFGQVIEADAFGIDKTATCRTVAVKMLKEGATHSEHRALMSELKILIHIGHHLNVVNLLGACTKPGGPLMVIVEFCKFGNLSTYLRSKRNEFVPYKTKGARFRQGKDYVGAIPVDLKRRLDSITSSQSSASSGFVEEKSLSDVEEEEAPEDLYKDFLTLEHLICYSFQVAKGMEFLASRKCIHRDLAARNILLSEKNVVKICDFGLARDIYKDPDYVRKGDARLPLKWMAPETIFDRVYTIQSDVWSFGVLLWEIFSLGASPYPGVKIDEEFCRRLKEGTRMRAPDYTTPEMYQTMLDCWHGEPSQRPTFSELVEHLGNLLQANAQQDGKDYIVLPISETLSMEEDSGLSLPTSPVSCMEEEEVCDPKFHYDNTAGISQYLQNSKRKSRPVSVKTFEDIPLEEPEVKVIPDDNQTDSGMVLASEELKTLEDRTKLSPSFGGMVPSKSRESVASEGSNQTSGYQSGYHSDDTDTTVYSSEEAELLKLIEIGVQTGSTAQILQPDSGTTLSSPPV
# Sequence of Tyrosine-protein kinase Fer (P16591 whole entry): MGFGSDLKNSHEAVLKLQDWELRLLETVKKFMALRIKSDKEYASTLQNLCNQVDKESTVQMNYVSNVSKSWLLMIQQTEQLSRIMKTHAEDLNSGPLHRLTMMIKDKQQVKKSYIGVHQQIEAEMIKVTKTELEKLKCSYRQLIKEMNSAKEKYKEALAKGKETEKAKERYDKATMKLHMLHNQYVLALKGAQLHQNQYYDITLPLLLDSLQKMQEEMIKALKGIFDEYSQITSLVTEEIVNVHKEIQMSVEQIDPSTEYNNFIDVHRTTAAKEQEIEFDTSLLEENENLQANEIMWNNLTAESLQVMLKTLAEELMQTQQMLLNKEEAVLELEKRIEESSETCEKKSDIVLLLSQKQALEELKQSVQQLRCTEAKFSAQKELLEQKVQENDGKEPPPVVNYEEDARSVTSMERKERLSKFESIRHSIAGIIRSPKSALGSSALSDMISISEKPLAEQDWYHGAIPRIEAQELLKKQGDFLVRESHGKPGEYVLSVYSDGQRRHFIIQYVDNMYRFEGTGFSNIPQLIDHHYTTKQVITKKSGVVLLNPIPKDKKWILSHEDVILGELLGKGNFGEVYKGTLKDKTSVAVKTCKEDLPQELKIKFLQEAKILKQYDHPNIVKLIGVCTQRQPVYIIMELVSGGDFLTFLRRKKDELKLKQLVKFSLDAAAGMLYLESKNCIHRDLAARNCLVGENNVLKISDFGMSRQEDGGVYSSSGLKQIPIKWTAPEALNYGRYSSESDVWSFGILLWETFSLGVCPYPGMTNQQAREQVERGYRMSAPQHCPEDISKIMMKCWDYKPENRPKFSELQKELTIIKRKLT
# Sequence of Tyrosine-protein kinase Lyn (P07948 whole entry): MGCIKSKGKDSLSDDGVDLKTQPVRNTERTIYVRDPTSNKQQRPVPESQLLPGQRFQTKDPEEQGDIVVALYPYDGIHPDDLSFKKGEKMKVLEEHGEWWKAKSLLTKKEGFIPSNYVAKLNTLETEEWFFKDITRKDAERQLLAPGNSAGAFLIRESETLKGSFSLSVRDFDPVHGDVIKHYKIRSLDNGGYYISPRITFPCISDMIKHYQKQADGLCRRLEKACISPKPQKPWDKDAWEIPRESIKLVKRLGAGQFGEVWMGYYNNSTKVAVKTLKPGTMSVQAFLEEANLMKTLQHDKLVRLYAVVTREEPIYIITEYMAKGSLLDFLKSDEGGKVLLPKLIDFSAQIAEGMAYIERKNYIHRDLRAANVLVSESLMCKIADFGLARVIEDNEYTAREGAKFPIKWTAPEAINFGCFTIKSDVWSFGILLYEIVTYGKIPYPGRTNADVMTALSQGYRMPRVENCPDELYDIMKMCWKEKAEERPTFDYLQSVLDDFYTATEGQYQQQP
# Sequence of Serine/threonine-protein kinase PAK 2 (Homo sapiens) (Q13177 whole entry): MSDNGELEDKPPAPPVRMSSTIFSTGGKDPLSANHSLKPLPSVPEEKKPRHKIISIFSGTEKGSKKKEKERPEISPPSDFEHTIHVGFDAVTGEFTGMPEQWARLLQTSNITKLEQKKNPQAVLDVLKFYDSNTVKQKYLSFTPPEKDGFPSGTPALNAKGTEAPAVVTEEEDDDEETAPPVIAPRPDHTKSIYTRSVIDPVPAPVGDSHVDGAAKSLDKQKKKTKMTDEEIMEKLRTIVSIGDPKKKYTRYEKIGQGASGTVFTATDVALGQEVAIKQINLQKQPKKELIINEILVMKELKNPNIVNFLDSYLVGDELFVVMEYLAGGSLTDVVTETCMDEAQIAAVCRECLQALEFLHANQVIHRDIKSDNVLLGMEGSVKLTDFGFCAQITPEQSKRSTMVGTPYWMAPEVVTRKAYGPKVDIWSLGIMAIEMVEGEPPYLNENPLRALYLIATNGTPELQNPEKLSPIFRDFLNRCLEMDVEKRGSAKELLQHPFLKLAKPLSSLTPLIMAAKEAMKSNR
# Sequence of Epidermal growth factor receptor (Homo sapiens), P00533 [L858R] (P00533 whole entry L858R): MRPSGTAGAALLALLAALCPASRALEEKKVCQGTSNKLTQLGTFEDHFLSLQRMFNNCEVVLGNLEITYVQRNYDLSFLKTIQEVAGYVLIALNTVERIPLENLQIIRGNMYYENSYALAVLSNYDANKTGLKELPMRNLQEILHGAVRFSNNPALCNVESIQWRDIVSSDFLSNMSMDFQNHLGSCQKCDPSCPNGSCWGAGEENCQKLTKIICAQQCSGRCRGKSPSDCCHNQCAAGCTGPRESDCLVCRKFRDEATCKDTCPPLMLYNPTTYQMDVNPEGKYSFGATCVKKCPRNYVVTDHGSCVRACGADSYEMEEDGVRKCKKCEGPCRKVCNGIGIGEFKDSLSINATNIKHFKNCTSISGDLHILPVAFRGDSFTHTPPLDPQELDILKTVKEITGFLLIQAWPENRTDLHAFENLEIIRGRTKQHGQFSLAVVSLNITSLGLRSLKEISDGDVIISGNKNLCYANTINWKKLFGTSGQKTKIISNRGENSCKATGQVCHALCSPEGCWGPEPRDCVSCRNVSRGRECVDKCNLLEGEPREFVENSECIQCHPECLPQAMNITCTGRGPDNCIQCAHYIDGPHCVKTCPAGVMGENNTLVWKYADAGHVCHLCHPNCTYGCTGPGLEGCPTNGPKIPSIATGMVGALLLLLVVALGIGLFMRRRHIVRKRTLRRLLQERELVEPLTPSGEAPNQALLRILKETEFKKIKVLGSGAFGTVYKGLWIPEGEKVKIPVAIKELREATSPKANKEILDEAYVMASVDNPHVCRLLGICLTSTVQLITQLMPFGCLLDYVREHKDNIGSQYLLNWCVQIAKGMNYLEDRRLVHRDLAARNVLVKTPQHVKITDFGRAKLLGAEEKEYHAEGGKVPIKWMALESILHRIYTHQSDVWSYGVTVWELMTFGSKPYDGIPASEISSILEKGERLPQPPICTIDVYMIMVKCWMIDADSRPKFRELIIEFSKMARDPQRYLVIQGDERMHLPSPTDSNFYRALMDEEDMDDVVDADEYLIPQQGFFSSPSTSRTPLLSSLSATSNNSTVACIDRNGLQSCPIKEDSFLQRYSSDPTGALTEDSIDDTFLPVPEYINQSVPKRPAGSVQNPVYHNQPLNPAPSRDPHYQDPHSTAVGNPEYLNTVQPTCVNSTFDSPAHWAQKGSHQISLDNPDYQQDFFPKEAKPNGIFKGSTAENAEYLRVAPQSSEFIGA
# Sequence of Myotonin-protein kinase (Homo sapiens) (Q09013 whole entry): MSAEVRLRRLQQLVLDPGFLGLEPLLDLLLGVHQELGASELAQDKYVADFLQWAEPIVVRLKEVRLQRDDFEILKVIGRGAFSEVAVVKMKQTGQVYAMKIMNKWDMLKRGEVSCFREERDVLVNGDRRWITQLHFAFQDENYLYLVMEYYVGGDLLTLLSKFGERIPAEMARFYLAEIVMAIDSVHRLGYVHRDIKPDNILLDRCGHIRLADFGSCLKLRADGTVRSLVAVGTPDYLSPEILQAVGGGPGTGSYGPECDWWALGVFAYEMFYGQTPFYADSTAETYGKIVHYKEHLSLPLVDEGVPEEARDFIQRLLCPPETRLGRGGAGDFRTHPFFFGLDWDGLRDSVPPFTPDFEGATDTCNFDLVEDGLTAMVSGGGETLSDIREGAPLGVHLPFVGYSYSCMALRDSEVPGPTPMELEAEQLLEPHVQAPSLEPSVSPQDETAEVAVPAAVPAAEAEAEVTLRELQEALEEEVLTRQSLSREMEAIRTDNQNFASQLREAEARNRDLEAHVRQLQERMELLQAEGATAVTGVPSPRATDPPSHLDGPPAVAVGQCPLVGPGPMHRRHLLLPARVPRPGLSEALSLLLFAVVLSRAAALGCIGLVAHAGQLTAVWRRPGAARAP
smiles,measurement,setting,value
COc1cc(N2CCC(N3CCN(C)CC3)CC2)ccc1Nc1ncc(Cl)c(Nc2ccccc2P(C)(C)=O)n1 [BRIGATINIB],IC50,[1],0.0013 µM
same,IC50,[2],0.023 µM
same,IC50,[3],0.027 µM
same,IC50,[4],0.138 µM
same,IC50,[5],0.198 µM
same,IC50,[6],0.241 µM
same,IC50,[7],0.242 µM
same,IC50,[8],0.358 µM
same,IC50,[9],0.816 µM
same,inhibition,[10],< 90%
same,inhibition,[11],< 90%
same,inhibition,[12],< 90%
same,inhibition,[13],< 90%
same,inhibition,[14],< 90%
same,inhibition,[15],< 90%
same,inhibition,[16],< 90%
same,inhibition,[17],< 90%
same,inhibition,[18],< 90%
same,inhibition,[19],< 90%
same,inhibition,[20],< 90%
same,inhibition,[21],< 90%
same,Cave,[22],1.87 µM
same,Cave,[23],0.582 µM
same,Activity,[24],Non-Toxic
same,Activity,NCI-H2228,Active
same,IC90,[25],2.46 µM
same,IC90,[26],1.2 µM
same,GI50,KARPAS-299,0.01 µM
same,inhibition,[27],inactive
same,inhibition,[28],Active
